Measured values reported in patent US12539292B2, “BRM targeting compounds and associated methods of use” (Arvinas Operations, Inc., priority 2018, dated 2026).

Target: T1, BRM (Homo sapiens, UniProt P51531)
T1 construct: In-Cell Western Screen of BRM Degradation in SW1573 Cells; endogenous in cells; host or cells: SW1573
Test: In-cell Western screen of BRM degradation in SW1573 cells (Dmax and DC50)
Type: cell-based
Settings: BRM degradation, SW1573 cells; for DC50: read-out: DC50; for Dmax: when tested at the top concentration of between 0.3 and 10 μM, read-out: Dmax (%) (% degraded); for Dmax (%) (% degraded): tested at the top concentration of between 0.3 and 10 μM
Method in brief: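 SW1573 cells were treated overnight (18-20 hours) with compound at 0.1% final DMSO. They were then PFA-fixed, permeabilised with Triton X-100 and immunostained with 800 nm/680 nm secondary antibodies. BRM signal was quantified by LI-COR in-cell Western imaging to derive Dmax and DC50.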

T1 sequence (P51531 whole entry): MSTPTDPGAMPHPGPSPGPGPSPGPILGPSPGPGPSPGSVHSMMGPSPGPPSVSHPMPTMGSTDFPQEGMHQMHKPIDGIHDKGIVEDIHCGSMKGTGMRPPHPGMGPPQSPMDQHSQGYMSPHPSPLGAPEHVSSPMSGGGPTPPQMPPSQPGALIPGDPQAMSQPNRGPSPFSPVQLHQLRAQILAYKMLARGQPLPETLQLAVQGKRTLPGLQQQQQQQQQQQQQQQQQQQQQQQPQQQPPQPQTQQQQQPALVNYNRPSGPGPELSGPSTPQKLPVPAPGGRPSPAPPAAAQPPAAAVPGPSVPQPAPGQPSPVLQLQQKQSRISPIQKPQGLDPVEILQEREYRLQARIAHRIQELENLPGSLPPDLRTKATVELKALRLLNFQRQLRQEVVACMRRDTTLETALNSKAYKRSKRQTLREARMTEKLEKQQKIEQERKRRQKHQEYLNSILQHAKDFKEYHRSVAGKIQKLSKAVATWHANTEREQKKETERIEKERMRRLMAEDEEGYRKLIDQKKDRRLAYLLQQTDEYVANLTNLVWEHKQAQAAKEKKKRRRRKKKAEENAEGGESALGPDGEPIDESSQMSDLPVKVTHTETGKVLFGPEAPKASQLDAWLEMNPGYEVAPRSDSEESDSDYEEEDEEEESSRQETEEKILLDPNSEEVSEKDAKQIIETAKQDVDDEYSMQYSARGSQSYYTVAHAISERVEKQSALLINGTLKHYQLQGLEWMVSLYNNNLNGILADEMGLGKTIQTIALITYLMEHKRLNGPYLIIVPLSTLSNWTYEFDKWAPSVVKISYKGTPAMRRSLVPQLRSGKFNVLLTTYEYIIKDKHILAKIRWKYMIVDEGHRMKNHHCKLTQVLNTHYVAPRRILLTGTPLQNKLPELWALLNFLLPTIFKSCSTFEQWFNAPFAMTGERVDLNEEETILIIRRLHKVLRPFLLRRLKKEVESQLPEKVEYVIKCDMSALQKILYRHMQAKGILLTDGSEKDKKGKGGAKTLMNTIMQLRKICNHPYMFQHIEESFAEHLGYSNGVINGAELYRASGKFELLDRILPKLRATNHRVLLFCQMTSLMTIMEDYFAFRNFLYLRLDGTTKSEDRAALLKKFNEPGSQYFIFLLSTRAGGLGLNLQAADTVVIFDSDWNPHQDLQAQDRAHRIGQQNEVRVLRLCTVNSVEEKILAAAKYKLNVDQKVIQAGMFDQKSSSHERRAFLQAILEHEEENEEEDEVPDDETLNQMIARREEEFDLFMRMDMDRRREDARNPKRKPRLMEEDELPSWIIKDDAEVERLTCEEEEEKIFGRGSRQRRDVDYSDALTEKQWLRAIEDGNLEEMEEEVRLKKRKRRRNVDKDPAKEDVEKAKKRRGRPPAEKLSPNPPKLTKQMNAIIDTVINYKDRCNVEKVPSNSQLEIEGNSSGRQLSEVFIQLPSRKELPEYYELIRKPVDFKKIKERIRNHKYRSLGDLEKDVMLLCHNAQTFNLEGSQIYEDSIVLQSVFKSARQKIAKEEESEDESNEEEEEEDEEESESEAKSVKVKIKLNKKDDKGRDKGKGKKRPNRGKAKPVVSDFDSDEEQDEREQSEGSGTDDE

SMILES	DC50 [nM]	Dmax [%]	Dmax (%) (% degraded)
Cc1ncsc1-c1ccc([C@H](C)NC(=O)[C@@H]2C[C@@H](O)CN2C(=O)C(C(C)C)n2cc(OCCN3CCN(CCOc4cc(N5C6CCC5CN(c5cc(-c7ccccc7O)nnc5N)C6)ccn4)CC3)cn2)cc1 (stereo in doubt) [compound 38, (2S,4R)-1-[(2R)-2-[4-[2-(4-[2-[(4-[3-[3-amino-6-(2-hydroxyphenyl)pyridazin-4-yl]-3,8-diazabicyclo[3.2.1]octan-8-yl]pyridin-2-yl)oxy]ethyl]piperazin-1-yl)ethoxy]-1H-pyrazol-1-yl]-3-methylbutanoyl]-4-hydroxy-N-[(1S)-1-[4-(4-methyl-1,3-thiazol-5-yl)phenyl]ethyl]pyrrolidine-2-carboxamide]	10 to 30	> 75	
Cc1ncsc1-c1ccc([C@H](C)NC(=O)[C@@H]2C[C@@H](O)CN2C(=O)C(C(C)C)n2cc(OCCN3CCN(CCOc4cc(N5C6CCC5CN(c5cc(-c7ccccc7O)nnc5N)C6)ccn4)CC3)cn2)cc1 (stereo in doubt) [compound 39, (2S,4R)-1-[(2S)-2-[4-[2-(4-[2-[(4-[3-[3-amino-6-(2-hydroxyphenyl)pyridazin-4-yl]-3,8-diazabicyclo[3.2.1]octan-8-yl]pyridin-2-yl)oxy]ethyl]piperazin-1-yl)ethoxy]-1H-pyrazol-1-yl]-3-methylbutanoyl]-4-hydroxy-N-[(1S)-1-[4-(4-methyl-1,3-thiazol-5-yl)phenyl]ethyl]pyrrolidine-2-carboxamide]	> 30	> 75	
Cc1ncsc1-c1ccc([C@H](C)NC(=O)[C@@H]2C[C@@H](O)CN2C(=O)C(c2cc(OCCn3cc(C(C)n4cc(-c5cc(-c6ccccc6O)nnc5N)cn4)ccc3=O)no2)C(C)C)cc1 (stereo in doubt) [compound 162, (2S,4R)-1-((2R)-2-(3-(2-(5-(1-(4-(3-amino-6-(2-hydroxyphenyl)pyridazin-4-yl)-1H-pyrazol-1-yl)ethyl)-2-oxopyridin-1(2H)-yl)ethoxy)isoxazol-5-yl)-3-methylbutanoyl)-4-hydroxy-N-((S)-1-(4-(4-methylthiazol-5-yl)phenyl)ethyl)pyrrolidine-2-carboxamide]	> 30		A (A > 75)
Cc1cnn(C)c1-c1ccc([C@H](C)NC(=O)[C@@H]2C[C@@H](O)CN2C(=O)C(c2cc(OCCN3CCN(CCOc4cc(N5C6CCC5CN(c5cc(-c7ccccc7O)nnc5N)C6)ccn4)CC3)no2)C(C)C)cc1 (stereo in doubt) [compound 194, (2S,4R)-1-((2R)-2-(3-(2-(4-(2-((4-(3-(3-amino-6-(2-hydroxyphenyl)pyridazin-4-yl)-3,8-diazabicyclo[3.2.1]octan-8-yl)pyridin-2-yl)oxy)ethyl)piperazin-1-yl)ethoxy)isoxazol-5-yl)-3-methylbutanoyl)-N-((S)-1-(4-(1,4-dimethyl-1H-pyrazol-5-yl)phenyl)ethyl)-4-hydroxypyrrolidine-2-carboxamide]	< 2.5		A (A > 75)
Cc1ncsc1-c1ccc(CNC(=O)[C@@H]2C[C@@H](O)CN2C(=O)[C@@H](NC(=O)COCCOCCOCCn2cc(-c3cc(-c4ccccc4O)nnc3N)cn2)C(C)(C)C)cc1 [compound 1, (2S,4R)-1-((S)-14-(4-(3-amino-6-(2-hydroxyphenyl)pyridazin-4-yl)-1H-pyrazol-1-yl)-2-(tert-butyl)-4-oxo-6,9,12-trioxa-3-azatetradecanoyl)-4-hydroxy-N-(4-(4-methylthiazol-5-yl)benzyl)pyrrolidine-2-carboxamide]	> 30	> 75	
Cc1ncsc1-c1ccc(CNC(=O)[C@@H]2C[C@@H](O)CN2C(=O)[C@@H](NC(=O)COCCOCCOCCOCCOCCOCCn2cc(-c3cc(-c4ccccc4O)nnc3N)cn2)C(C)(C)C)cc1 [compound 3, (2S,4R)-1-((S)-23-(4-(3-amino-6-(2-hydroxyphenyl)pyridazin-4-yl)-1H-pyrazol-1-yl)-2-(tert-butyl)-4-oxo-6,9,12,15,18,21-hexaoxa-3-azatricosanoyl)-4-hydroxy-N-(4-(4-methylthiazol-5-yl)benzyl)pyrrolidine-2-carboxamide]	> 30	> 75	
Cc1ncsc1-c1ccc(CNC(=O)[C@@H]2C[C@@H](O)CN2C(=O)[C@@H](NC(=O)COCCOCCOCCOCCOCCn2cc(-c3cc(-c4ccccc4O)nnc3N)cn2)C(C)(C)C)cc1 [compound 4, (2S,4R)-1-((S)-20-(4-(3-amino-6-(2-hydroxyphenyl)pyridazin-4-yl)-1H-pyrazol-1-yl)-2-(tert-butyl)-4-oxo-6,9,12,15,18-pentaoxa-3-azaicosanoyl)-4-hydroxy-N-(4-(4-methylthiazol-5-yl)benzyl)pyrrolidine-2-carboxamide]	> 30	> 75	
Cc1ncsc1-c1ccc(CNC(=O)[C@@H]2C[C@@H](O)CN2C(=O)[C@@H](NC(=O)COCCOCCOCCOCCOCCOCCOCCn2cc(-c3cc(-c4ccccc4O)nnc3N)cn2)C(C)(C)C)cc1 [compound 5, (2S,4R)-1-((S)-26-(4-(3-amino-6-(2-hydroxyphenyl)pyridazin-4-yl)-1H-pyrazol-1-yl)-2-(tert-butyl)-4-oxo-6,9,12,15,18,21,24-heptaoxa-3-azahexacosanoyl)-4-hydroxy-N-(4-(4-methylthiazol-5-yl)benzyl)pyrrolidine-2-carboxamide]	> 30	> 75	
Cc1ncsc1-c1ccc(CNC(=O)[C@@H]2C[C@@H](O)CN2C(=O)[C@@H](NC(=O)COCCOCCOCCOc2cc(N3C4CCC3CN(c3cc(-c5ccccc5O)nnc3N)C4)ccn2)C(C)(C)C)cc1 [compound 6, (2S,4R)-1-((2S)-14-((4-(3-(3-amino-6-(2-hydroxyphenyl)pyridazin-4-yl)-3,8-diazabicyclo[2.1]octan-8-yl)pyridin-2-yl)oxy)-2-(tert-butyl)-4-oxo-6,9,12-trioxa-3-azatetradecanoyl)-4-hydroxy-N-(4-(4-methylthiazol-5-yl)benzyl)pyrrolidine-2-carboxamide]	10 to 30	> 75	
Cc1ncsc1-c1ccc(CNC(=O)[C@@H]2C[C@@H](O)CN2C(=O)[C@@H](NC(=O)COCCOCCOCCOCCOc2cc(N3C4CCC3CN(c3cc(-c5ccccc5O)nnc3N)C4)ccn2)C(C)(C)C)cc1 [compound 7, (2S,4R)-1-((2S)-17-((4-(3-(3-amino-6-(2-hydroxyphenyl)pyridazin-4-yl)-3,8-diazabicyclo[3.2.1]octan-8-yl)pyridin-2-yl)oxy)-2-(tert-butyl)-4-oxo-6,9,12,15-tetraoxa-3-azaheptadecanoyl)-4-hydroxy-N-(4-(4-methylthiazol-5-yl)benzyl)pyrrolidine-2-carboxamide]	2.5 to 10	> 75	
Cc1ncsc1-c1ccc(CNC(=O)[C@@H]2C[C@@H](O)CN2C(=O)[C@@H](NC(=O)COCCOCCOCCOCCOCCOCCOc2cc(N3C4CCC3CN(c3cc(-c5ccccc5O)nnc3N)C4)ccn2)C(C)(C)C)cc1 [compound 8, (2S,4R)-1-((2S)-23-((4-(3-(3-amino-6-(2-hydroxyphenyl)pyridazin-4-yl)-3,8-diazabicyclo[3.2.1]octan-8-yl)pyridin-2-yl)oxy)-2-(tert-butyl)-4-oxo-6,9,12,15,18,21-hexaoxa-3-azatricosanoyl)-4-hydroxy-N-(4-(4-methylthiazol-5-yl)benzyl)pyrrolidine-2-carboxamide]	10 to 30	> 75	
Cc1ncsc1-c1ccc(CNC(=O)[C@@H]2C[C@@H](O)CN2C(=O)[C@@H](NC(=O)COCCOCCOCCOCCOCCOc2cc(N3[C@@H]4CC[C@H]3CN(c3cc(-c5ccccc5O)nnc3N)C4)ccn2)C(C)(C)C)cc1 [compound 9, (2S,4R)-1-((S)-20-((4-((1R,5S)-3-(3-amino-6-(2-hydroxyphenyl)pyridazin-4-yl)-3,8-diazabicyclo[3.2.1]octan-8-yl)pyridin-2-yl)oxy)-2-(tert-butyl)-4-oxo-6,9,12,15,18-pentaoxa-3-azaicosanoyl)-4-hydroxy-N-(4-(4-methylthiazol-5-yl)benzyl)pyrrolidine-2-carboxamide]	2.5 to 10	> 75	
Cc1ncsc1-c1ccc(CNC(=O)[C@@H]2C[C@@H](O)CN2C(=O)[C@@H](NC(=O)COCCOCCOCCOCCOCCOCCOCCOc2cc(N3C4CCC3CN(c3cc(-c5ccccc5O)nnc3N)C4)ccn2)C(C)(C)C)cc1 [compound 10, (2S,4R)-1-((2S)-26-((4-(3-(3-amino-6-(2-hydroxyphenyl)pyridazin-4-yl)-3,8-diazabicyclo[3.2.1]octan-8-yl)pyridin-2-yl)oxy)-2-(tert-butyl)-4-oxo-6,9,12,15,18,21,24-heptaoxa-3-azahexacosanoyl)-4-hydroxy-N-(4-(4-methylthiazol-5-yl)benzyl)pyrrolidine-2-carboxamide]	2.5 to 10	> 75	
Cc1ncsc1-c1ccc(CNC(=O)[C@@H]2C[C@@H](O)CN2C(=O)[C@@H](NC(=O)COCCOCCn2cc(-c3cc(-c4ccccc4O)nnc3N)cn2)C(C)(C)C)cc1 [compound 11, (2S,4R)-1-((S)-2-(2-(2-(2-(4-(3-amino-6-(2-hydroxyphenyl)pyridazin-4-yl)-1H-pyrazol-1-yl)ethoxy)ethoxy)acetamido)-3,3-dimethylbutanoyl)-4-hydroxy-N-(4-(4-methylthiazol-5-yl)benzyl)pyrrolidine-2-carboxamide]	> 30	> 75	
Cc1ncsc1-c1ccc(CNC(=O)[C@@H]2C[C@@H](O)CN2C(=O)[C@H](C(C)C)N2Cc3ccccc3C2=O)c(OCCOCCOCCOCCn2cc(-c3cc(-c4ccccc4O)nnc3N)cn2)c1 [compound 12, (2S,4R)-N-(2-(2-(2-(2-(2-(4-(3-amino-6-(2-hydroxyphenyl)pyridazin-4-yl)-1H-pyrazol-1-yl)ethoxy)ethoxy)ethoxy)ethoxy)-4-(4-methylthiazol-5-yl)benzyl)-4-hydroxy-1-((S)-3-methyl-2-(1-oxoisoindolin-2-yl)butanoyl)pyrrolidine-2-carboxamide]	> 30	50 to 75	
